Assay results taken from PMC12692861, “Biotin-Linked Ursolic Acid Conjugates as Selective Anticancer Agents and Target-Identification Tools for Cancer Therapy” (Molecules, 2025).
Read-outs that look alike come from different tables or passages of the source.

How the values were obtained:
5637 cells [1] = assay: MTT antiproliferative assay; assay type: cell-based, human; settings: for IC50: Homo sapiens, 72 h, MTT, read-out: IC50 (Mean ± SD), 5637; for SI (selectivity index), 5637: IC50 MCF-12A / IC50 5637
Experimental: (§1) The synthesized hybrid conjugates 5a–d were evaluated for their antiproliferative activity against the established human bladder cancer cell lines T24 and 5637. Test compounds were dissolved in ultrapure dimethyl sulfoxide (DMSO), diluted in cell culture media, added to cells cultured in 96-well cluster wells, and incubated for 72 h. The concentration of DMSO in culture media was maintained at < 0.05%. As previously reported, the fraction of viable cells in the culture wells was compared to that in cultures with 0.05% DMSO-only using a colorimetric assay, the Methyl Tetrazolium Bromide (MTT) reduction assay. We determined the selectivity index (SI) of the compounds 5a–d against tumor cells by comparing their cytotoxicity to that of a non-tumorigenic breast epithelial cell line, MCF-12A, as well as a non-tumorigenic, immortalized urothelial cell line, UROtsa (Table 1, and Figure 2).
(§2) The antiproliferative activities of various compounds examined in this report were measured using the MTT (3-[4,5-dimethylthiazol-2-yl]-2,5-diphenyl-tetrazolium bromide) reduction assay, as previously described. Briefly, cells were seeded at 2 × 10^3 cells per well in a 96-well plate and cultured overnight. The cells were then treated with different doses (5 µM, 10 µM, 15 µM, 20 µM, 25 µM, 30 µM, 35 µM, 40 µM in DMSO) for 72 h. Viability of the treated cultures was estimated by conversion of MTT to the insoluble formazan after 3h incubation at 37 °C and 5% CO2. The purple-colored formazan crystals were dissolved in DMSO, and absorbance was recorded at wavelengths 570/640 nm using the Bio-Rad Benchmark Plus Microplate Reader. The percent of viable cells was calculated ODtreated cells/ODcontrol cell wells × 100.

T24 cells = assay: MTT antiproliferative assay; assay type: cell-based, human; settings: for IC50: Homo sapiens, T-24, MTT, 72 h, read-out: IC50 (Mean ± SD), T24; for SI (selectivity index), T24: IC50 MCF-12A / IC50 T24
Experimental: as §1, §2

MCF-12A = assay: MTT assay, non-tumorigenic breast epithelial cell line; assay type: cell-based, human; settings: for IC50: Homo sapiens, MCF-12A, MTT, 72 h, non-tumorigenic cells, read-out: IC50 (Mean ± SD), MCF-12A
Experimental: as §1, §2

MB49 = assay: MTT antiproliferative assay; assay type: cell-based, murine; settings: for SI (selectivity index), MB49: IC50 UROtsa / IC50 MB49; for IC50: Mus musculus, MB49, MTT, 72 h, read-out: IC50 ± SD, MB49
Experimental: The IC50 values indicate that 5c is effective across multiple bladder cancer cell lines (Figure 2 and Table 2).
as §2

UROtsa = assay: MTT assay, non-tumorigenic immortalized urothelial cell line; assay type: cell-based, human; settings: for IC50: Homo sapiens, MTT, 72 h, non-tumorigenic cells, read-out: IC50 ± SD, UROtsa
Experimental: as §1, §2

MB49 cells = assay: Annexin V-FITC/PI apoptosis flow cytometry; assay type: cell-based, murine; settings: Mus musculus, MB49, 24 h
Experimental: (§3) The potential of cells treated with UA or 5c to undergo dose-dependent apoptosis was explored using quantitative flow cytometric analysis, as shown in Figure 4. Utilizing a kit that detects quantitative binding of Annexin V to externalized phosphatidyl serine during the apoptosis cascade and permeability of Propidium iodide (PI) in cells undergoing cell death, we determined the cells at various stages of cell death following 24h incubation with UA and 5c in various bladder cancer cells.
(§4) We used a fluorescence-based Annexin V binding assay to determine the fraction of the cell population undergoing early and late apoptosis due to the cytotoxicity of the drugs. Cells plated in a 60 mm dish overnight at 0.3 × 10^6 cells/well were incubated with the selected drug at several doses for 24 h. Subsequently, treated cells were labeled with FITC-Annexin V using a kit (eBioscience™ Annexin V Apoptosis Detection Kits; Invitrogen # 88-8005-72, Thermo Fisher Scientific, Seoul, Korea) as per the manufacturer’s instructions. Intact cell suspension labeled with FITC-Annexin V and PI was run on the NovoCyte Quanteon flow cytometer, and data were acquired in list mode. Acquired data were analyzed using NovoExpress software (version 1.6.1). Cells treated with Staurosporine (0.2 µM) act as a positive control.

5637 cells [2] = assay: Annexin V-FITC/PI apoptosis flow cytometry; assay type: cell-based; settings: Homo sapiens, 24 h, read-out: Q3-3 (Q3, viable) cells
Experimental: as §3, §4

5637 = assay: Cell cycle phase fractionation by flow cytometry (PI); assay type: cell-based, human; settings: 5637, 24 h, mean ± SD n=3
Excerpt: (§5) Cells treated with some antiproliferative drugs are blocked from orderly progression from one stage of their mitotic cycle to the next due to inhibition of a specific stage of the cell cycle. Analysis by flow cytometry (FC) of DNA content in the nuclei of drug-treated cells is a well-established technique for evaluating the fractions of cells in each stage of the cell cycle based on their DNA content. In this study, we employed FC to examine whether treatment with UA or 5c affects the orderly cell cycle progression from G0/G1, S, and G2M before entering Mitosis (M). Figure 6 represents the effect of UA and 5c on cell cycle progression in four bladder cancer cell lines, 5637, HT-1376, T-24, and MB-49, after a […] treatment at a concentration of 12 µM. Following the treatment, nuclei suspensions from treated cells were prepared by direct cell lysis in a hypotonic solution, with simultaneous staining with PI (100 µg/mL). The resulting nuclei suspension and the samples were run on the flow cytometer and analyzed for DNA content.
(§6) Cells cultured in 35 mm diameter, 6-well cluster plates (Corning Inc., Corning, NY, USA) overnight at a density of 0.3 × 10^6 cells/well, and treated with various compounds at selected concentrations for 24 h. After completion of treatment, cells were washed twice with PBS, followed by the addition of Propidium Iodide (PI) containing […] solution [(0.1 mg/mL PI), 50mg Na-citrate, 15 µL of IGEPAL CA-630], 1 mL in each well, and incubated for 30–45 min at 37 °C and 5% CO2. After that data acquired using the NovoCyte Quanteon Flow Cytometer was analyzed using NovoExpress software (version 1.6.1).

HT-1376 = assay: as above; assay type: cell-based, human; settings: HT-1376, 24 h, mean ± SD n=3
Excerpt: as §5, §6

T24 = assay: as above; assay type: cell-based, human; settings: T24, 24 h, mean ± SD n=3
Excerpt: as §5, §6

[3] = system: bladder cancer cell lines 5637, HT-1376, T-24, MB-49; assay: Cell cycle analysis, statements across the tested cell lines; assay type: cell-based; settings: for effect on cell cycle distribution: 12 µM, bladder cancer cell lines
Excerpt: as §5, §6

| SMILES | IC50 (5637 cells [1]) [µM] | SI (selectivity index), 5637 (5637 cells [1]) | IC50 (T24 cells) [µM] | SI (selectivity index), T24 (T24 cells) | IC50 (MCF-12A) [µM] | SI (selectivity index), MB49 (MB49) | IC50 (MB49) [µM] | IC50 (UROtsa) [µM] | Cell-Cycle Phase-Fractions G1 5637 | Cell-Cycle Phase-Fractions G2/M 5637 | Cell-Cycle Phase-Fractions S 5637 | Cell-Cycle Phase-Fractions G1 (HT-1376) | Cell-Cycle Phase-Fractions G2/M (HT-1376) | Cell-Cycle Phase-Fractions S (HT-1376) | Cell-Cycle Phase-Fractions G1 (T24) | Cell-Cycle Phase-Fractions G2/M (T24) | Cell-Cycle Phase-Fractions S (T24) | effect on cell cycle distribution [3] | other results |
| --- | --- | --- | --- | --- | --- | --- | --- | --- | --- | --- | --- | --- | --- | --- | --- | --- | --- | --- | --- |
| CC1CCC2(C(=O)OCCCCOC(=O)CCCCC3SCC4NC(=O)NC43)CCC3(C)C(=CCC4C5(C)CCC(O)C(C)(C)C5CCC43C)C2C1C [Compound 5c, 4-((5-((3aS,4S,6aR)-2-Oxohexahydro-1H-thieno [3,4-d]imidazol-4-yl)pentanoyl)oxy) butyl 3-hydroxy-urs-12-en-28-oate] | 11 ± 0.19 | 7.58 | 14.2 ± 1.01 | 5.85 | 83.11 ± 0.3 | 4.63 | 13.6 ± 0.18 | 62.9 ± 3.84 | 47.78 ± 0.60 % of total | 16.79 ± 0.73 % of total | 35.42 ± 1.33 % of total | 52.11 ± 0.06 % of total | 16.15 ± 0.71 % of total | 31.73 ± 0.65 % of total | 55.10 ± 0.37 % of total | 15.20 ± 0.02 % of total | 29.70 ± 0.39 % of total | G1 phase arrest | IC50 in µM (selectivity index in parentheses), T-24 (T24 cells; IC50 UROtsa / IC50 T-24): 14.20 ± 1.01 (4.43); toxicity to non-tumorigenic cells (MCF-12A; MCF12A): not toxic; toxicity to non-tumorigenic cells (UROtsa; UROtsa): not toxic; viability at 10 µM (MB49 cells; MB49, 10 µM, 24 h, read-out: Q4-3 (Q3, viable) cells): 39.4%; viability at 15 µM (MB49 cells; MB49, 15 µM, 24 h, read-out: Q4-3 (Q3, viable) cells): 35.6%; viability at 10 µM (5637 cells [2]; 5637, 10 µM): 33%; viability at 15 µM (5637 cells [2]; 5637, 15 µM): 27.9%; increase in the G1-phase population compared with untreated control ([3]; across the tested cell lines): 20–30% |
| C[C@H]1[C@H](C)CC[C@]2(C(=O)O)CC[C@]3(C)C(=CC[C@@H]4[C@@]5(C)CC[C@H](O)C(C)(C)[C@@H]5CC[C@]43C)[C@H]12 [UA, Ursolic acid] | 13.4 ± 0.35 | 4.19 | 17.5 ± 0.98 | 3.21 | 56.4 ± 7.6 | 6.26 | 10.7 ± 0.36 | 67 ± 7.15 | 43.52 ± 0.88 % of total | 18.59 ± 2.05 % of total | 37.89 ± 1.16 % of total | 52.40 ± 0.56 % of total | 17.17 ± 1.04 % of total | 30.43 ± 0.48 % of total | 57.76 ± 2.60 % of total | 19.95 ± 1.82 % of total | 22.29 ± 0.77 % of total | more modest shift in phase distribution | viability at 10 µM (MB49 cells; read-out: Q4-3 (Q3, viable) cells, MB49, 10 µM, 24 h): 74.4%; viability at 15 µM (MB49 cells; read-out: Q4-3 (Q3, viable) cells, MB49, 15 µM, 24 h): 64.5%; viability at 10 µM (5637 cells [2]): 69.5%; viability at 15 µM (5637 cells [2]): 64.6% |
